ChEMBL document CHEMBL4418495, “Entpd5 inhibitors” (2012)
Calls of active or inactive are those of the source. The rule behind the calls is not given here.

The compounds below were run against T1, Nucleoside diphosphate phosphatase ENTPD5 (Homo sapiens) (UniProt O75356) (assay: Inhibition of human recombinant ENTPD5 expressed in insect cells assessed as reduction in UDP hydrolysis at 1 uM incubated for 1 hr in presence of UMP, GTP and ATP by Escherichia coli UMP kinase pyrH catalyzed UMP phosphorylation coupled luciferase assay).
T1 sequence (whole entry): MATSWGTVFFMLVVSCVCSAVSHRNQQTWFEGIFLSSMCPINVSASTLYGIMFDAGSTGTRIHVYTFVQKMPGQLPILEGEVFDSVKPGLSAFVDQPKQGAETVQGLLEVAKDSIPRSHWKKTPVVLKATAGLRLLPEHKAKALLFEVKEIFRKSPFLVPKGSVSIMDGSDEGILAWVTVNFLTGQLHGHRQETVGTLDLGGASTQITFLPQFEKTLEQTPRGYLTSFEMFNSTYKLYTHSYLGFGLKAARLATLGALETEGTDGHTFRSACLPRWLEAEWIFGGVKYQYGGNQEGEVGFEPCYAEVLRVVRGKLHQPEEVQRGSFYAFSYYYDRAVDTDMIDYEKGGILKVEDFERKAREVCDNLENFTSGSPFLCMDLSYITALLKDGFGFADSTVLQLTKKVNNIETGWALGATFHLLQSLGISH
In the case of COc1cc(C2Nc3cccc4cccc(c34)N2)cc(I)c1O, the inhibition is reported as “Active”. With O=C1C=Cc2ccccc2/C1=C/NNC(=O)C(O)(c1ccccc1)c1ccccc1 the inhibition was “Active”. For O=C1NC(=S)N(c2ccc(Br)cc2)C(=O)/C1=C/c1ccc(-c2ccc(F)cc2)o1, the inhibition was “Active”. In the case of CC(C)(C)C(=O)Nc1ccc(C(=O)Nc2ccc(-c3nc4ncccc4o3)cc2)cc1, the inhibition is reported as “Active”. With C=CCN(CC(=O)Nc1cc(C)on1)C(=O)CCCC the inhibition was “Active”. For Cc1ccc(-c2ccc(C=C3C(=O)NC(=O)NC3=O)o2)c(Br)c1, the inhibition was “Active”. CCN1C(=O)c2ccc(-c3ccc(C=C4C(=O)NC(=S)NC4=O)o3)cc2C1=O was tested, and the inhibition was “Active”. With O=C1N=C2C=CC(I)=CC2C1NNc1cccc2cccnc12 (stereo not given) the inhibition was “Active”. With O=S(=O)(c1cccc(C(F)(F)F)c1)N(CCc1csc2nc(-c3ccc4ccccc4c3)cn12)Cc1ccco1 the inhibition was “Active”. O=C(CCl)N(CC(=O)N1c2ccccc2-n2cccc2C1c1ccc(Cl)cc1)C1CC1 (stereo not given) was tested, and the inhibition was “Active”. For Cc1ccc2ncc(C(CC(=O)N3CCN(C(c4ccccc4)c4ccccc4)CC3)c3ccc4c(c3)OCO4)n2c1 (stereo not given), the inhibition was “Active”. In the case of Cc1cccc(Oc2ccc(N3C(=O)C=CC3=O)cc2)c1C, the inhibition is reported as “Active”. In the case of COc1ccc(-n2cccc2/C=C2\C(=O)NC(=S)N(c3ccc(Br)cc3)C2=O)cc1, the inhibition is reported as “Active”. In the case of C#CCn1cc(/C=C2\C(=O)NC(=S)N(c3ccc(Br)cc3)C2=O)c2ccccc21, the inhibition is reported as “Active”. N=C1NC(=O)/C(=C/C=C/c2ccc([N+](=O)[O-])o2)S1 was tested, and the inhibition was “Active”. For Cc1ccc(/C=C/C(=O)Nc2nc3ccc(Cl)cc3s2)o1, the inhibition was “Active”. For O=[N+]([O-])c1ccc(NCc2ccco2)c2nonc12, the inhibition was “Active”. Cc1ccc(-c2csc3nc(SCc4c(C)noc4C)n(-c4ccccc4)c(=O)c23)o1 was tested, and the inhibition was “Active”. With COc1ccc(-n2cccc2/C=C2\C(=O)NC(=S)N(c3ccc(C)c(C)c3)C2=O)cc1 the inhibition was “Active”. In the case of COC(=O)Cn1cc(/C=C2\C(=O)NC(=S)N(c3ccc(Cl)cc3)C2=O)c2ccccc21, the inhibition is reported as “Active”.

What follows are compounds tested against T1, Nucleoside diphosphate phosphatase ENTPD5 (Homo sapiens) (assay: Inhibition of human recombinant ENTPD5 expressed in insect cells assessed as reduction in UDP hydrolysis up to 10 uM incubated for 1 hr in presence of UMP, GTP and ATP by Escherichia coli UMP kinase pyrH catalyzed UMP phosphorylation coupled luciferase assay).
For COc1cc(C2Nc3cccc4cccc(c34)N2)cc(I)c1O, the inhibition was “Dose-dependent effect”. For O=C1C=Cc2ccccc2/C1=C/NNC(=O)C(O)(c1ccccc1)c1ccccc1, the inhibition was “Dose-dependent effect”. With O=C1NC(=S)N(c2ccc(Br)cc2)C(=O)/C1=C/c1ccc(-c2ccc(F)cc2)o1 the inhibition was “Dose-dependent effect”. For CC(C)(C)C(=O)Nc1ccc(C(=O)Nc2ccc(-c3nc4ncccc4o3)cc2)cc1, the inhibition was “Dose-dependent effect”. C=CCN(CC(=O)Nc1cc(C)on1)C(=O)CCCC was tested, and the inhibition was “Dose-dependent effect”. Cc1ccc(-c2ccc(C=C3C(=O)NC(=O)NC3=O)o2)c(Br)c1 was tested, and the inhibition was “Dose-dependent effect”. For CCN1C(=O)c2ccc(-c3ccc(C=C4C(=O)NC(=S)NC4=O)o3)cc2C1=O, the inhibition was “Dose-dependent effect”. For O=C1N=C2C=CC(I)=CC2C1NNc1cccc2cccnc12 (stereo not given), the inhibition was “Dose-dependent effect”. O=S(=O)(c1cccc(C(F)(F)F)c1)N(CCc1csc2nc(-c3ccc4ccccc4c3)cn12)Cc1ccco1 was tested, and the inhibition was “Dose-dependent effect”. O=C(CCl)N(CC(=O)N1c2ccccc2-n2cccc2C1c1ccc(Cl)cc1)C1CC1 (stereo not given) was tested, and the inhibition was “Dose-dependent effect”. Cc1ccc2ncc(C(CC(=O)N3CCN(C(c4ccccc4)c4ccccc4)CC3)c3ccc4c(c3)OCO4)n2c1 (stereo not given) was tested, and the inhibition was “Dose-dependent effect”. Cc1cccc(Oc2ccc(N3C(=O)C=CC3=O)cc2)c1C was tested, and the inhibition was “Dose-dependent effect”. In the case of COc1ccc(-n2cccc2/C=C2\C(=O)NC(=S)N(c3ccc(Br)cc3)C2=O)cc1, the inhibition is reported as “Dose-dependent effect”. C#CCn1cc(/C=C2\C(=O)NC(=S)N(c3ccc(Br)cc3)C2=O)c2ccccc21 was tested, and the inhibition was “Dose-dependent effect”. N=C1NC(=O)/C(=C/C=C/c2ccc([N+](=O)[O-])o2)S1 was tested, and the inhibition was “Dose-dependent effect”. With Cc1ccc(/C=C/C(=O)Nc2nc3ccc(Cl)cc3s2)o1 the inhibition was “Dose-dependent effect”. For O=[N+]([O-])c1ccc(NCc2ccco2)c2nonc12, the inhibition was “Dose-dependent effect”. For Cc1ccc(-c2csc3nc(SCc4c(C)noc4C)n(-c4ccccc4)c(=O)c23)o1, the inhibition was “Dose-dependent effect”. For COc1ccc(-n2cccc2/C=C2\C(=O)NC(=S)N(c3ccc(C)c(C)c3)C2=O)cc1, the inhibition was “Dose-dependent effect”. For COC(=O)Cn1cc(/C=C2\C(=O)NC(=S)N(c3ccc(Cl)cc3)C2=O)c2ccccc21, the inhibition was “Dose-dependent effect”.

The compounds below were run against T2, Uridylate kinase (Escherichia coli (strain K12)) (UniProt P0A7E9) (assay: Inhibition of recombinant Escherichia coli UMP kinase pyrH catalyzed UMP phosphorylation in presence of GTP and ATP incubated for 1 hr by luminescence based assay).
T2 sequence (whole entry): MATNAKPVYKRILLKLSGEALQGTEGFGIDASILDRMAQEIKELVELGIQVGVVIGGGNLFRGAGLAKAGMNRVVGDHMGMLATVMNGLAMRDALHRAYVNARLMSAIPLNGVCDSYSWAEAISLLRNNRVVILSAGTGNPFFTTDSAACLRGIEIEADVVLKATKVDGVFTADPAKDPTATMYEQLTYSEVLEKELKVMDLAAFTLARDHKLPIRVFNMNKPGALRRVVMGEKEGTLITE
With COc1cc(C2Nc3cccc4cccc(c34)N2)cc(I)c1O the inhibition was “inactive”. O=C1C=Cc2ccccc2/C1=C/NNC(=O)C(O)(c1ccccc1)c1ccccc1 was tested, and the inhibition was “inactive”. In the case of O=C1NC(=S)N(c2ccc(Br)cc2)C(=O)/C1=C/c1ccc(-c2ccc(F)cc2)o1, the inhibition is reported as “inactive”. CC(C)(C)C(=O)Nc1ccc(C(=O)Nc2ccc(-c3nc4ncccc4o3)cc2)cc1 was tested, and the inhibition was “inactive”. For C=CCN(CC(=O)Nc1cc(C)on1)C(=O)CCCC, the inhibition was “inactive”. In the case of Cc1ccc(-c2ccc(C=C3C(=O)NC(=O)NC3=O)o2)c(Br)c1, the inhibition is reported as “inactive”. CCN1C(=O)c2ccc(-c3ccc(C=C4C(=O)NC(=S)NC4=O)o3)cc2C1=O was tested, and the inhibition was “inactive”. O=C1N=C2C=CC(I)=CC2C1NNc1cccc2cccnc12 (stereo not given) was tested, and the inhibition was “inactive”. O=S(=O)(c1cccc(C(F)(F)F)c1)N(CCc1csc2nc(-c3ccc4ccccc4c3)cn12)Cc1ccco1 was tested, and the inhibition was “inactive”. For O=C(CCl)N(CC(=O)N1c2ccccc2-n2cccc2C1c1ccc(Cl)cc1)C1CC1 (stereo not given), the inhibition was “inactive”. With Cc1ccc2ncc(C(CC(=O)N3CCN(C(c4ccccc4)c4ccccc4)CC3)c3ccc4c(c3)OCO4)n2c1 (stereo not given) the inhibition was “inactive”. Cc1cccc(Oc2ccc(N3C(=O)C=CC3=O)cc2)c1C was tested, and the inhibition was “inactive”. COc1ccc(-n2cccc2/C=C2\C(=O)NC(=S)N(c3ccc(Br)cc3)C2=O)cc1 was tested, and the inhibition was “inactive”. With C#CCn1cc(/C=C2\C(=O)NC(=S)N(c3ccc(Br)cc3)C2=O)c2ccccc21 the inhibition was “inactive”. N=C1NC(=O)/C(=C/C=C/c2ccc([N+](=O)[O-])o2)S1 was tested, and the inhibition was “inactive”. For Cc1ccc(/C=C/C(=O)Nc2nc3ccc(Cl)cc3s2)o1, the inhibition was “inactive”. For O=[N+]([O-])c1ccc(NCc2ccco2)c2nonc12, the inhibition was “inactive”. Cc1ccc(-c2csc3nc(SCc4c(C)noc4C)n(-c4ccccc4)c(=O)c23)o1 was tested, and the inhibition was “inactive”. With COc1ccc(-n2cccc2/C=C2\C(=O)NC(=S)N(c3ccc(C)c(C)c3)C2=O)cc1 the inhibition was “inactive”. For COC(=O)Cn1cc(/C=C2\C(=O)NC(=S)N(c3ccc(Cl)cc3)C2=O)c2ccccc21, the inhibition was “inactive”.

What follows are compounds tested against T1, Nucleoside diphosphate phosphatase ENTPD5 (Homo sapiens) (assay: Inhibition of human recombinant ENTPD5 expressed in insect cells assessed as reduction in reduction in UDP hydrolysis by measuring inorganic phosphate release incubated for 1 hr by malachite green based assay).
In the case of COc1cc(C2Nc3cccc4cccc(c34)N2)cc(I)c1O, the inhibition is reported as “Active”. For O=C1C=Cc2ccccc2/C1=C/NNC(=O)C(O)(c1ccccc1)c1ccccc1, the inhibition was “Active”. In the case of O=C1NC(=S)N(c2ccc(Br)cc2)C(=O)/C1=C/c1ccc(-c2ccc(F)cc2)o1, the inhibition is reported as “Active”. In the case of CC(C)(C)C(=O)Nc1ccc(C(=O)Nc2ccc(-c3nc4ncccc4o3)cc2)cc1, the inhibition is reported as “Active”. With C=CCN(CC(=O)Nc1cc(C)on1)C(=O)CCCC the inhibition was “Active”. With Cc1ccc(-c2ccc(C=C3C(=O)NC(=O)NC3=O)o2)c(Br)c1 the inhibition was “Active”. With CCN1C(=O)c2ccc(-c3ccc(C=C4C(=O)NC(=S)NC4=O)o3)cc2C1=O the inhibition was “Active”. With O=C1N=C2C=CC(I)=CC2C1NNc1cccc2cccnc12 (stereo not given) the inhibition was “Active”. For O=S(=O)(c1cccc(C(F)(F)F)c1)N(CCc1csc2nc(-c3ccc4ccccc4c3)cn12)Cc1ccco1, the inhibition was “Active”. In the case of O=C(CCl)N(CC(=O)N1c2ccccc2-n2cccc2C1c1ccc(Cl)cc1)C1CC1 (stereo not given), the inhibition is reported as “Active”. In the case of Cc1ccc2ncc(C(CC(=O)N3CCN(C(c4ccccc4)c4ccccc4)CC3)c3ccc4c(c3)OCO4)n2c1 (stereo not given), the inhibition is reported as “Active”. For Cc1cccc(Oc2ccc(N3C(=O)C=CC3=O)cc2)c1C, the inhibition was “Active”. In the case of COc1ccc(-n2cccc2/C=C2\C(=O)NC(=S)N(c3ccc(Br)cc3)C2=O)cc1, the inhibition is reported as “Active”. In the case of C#CCn1cc(/C=C2\C(=O)NC(=S)N(c3ccc(Br)cc3)C2=O)c2ccccc21, the inhibition is reported as “Active”. For N=C1NC(=O)/C(=C/C=C/c2ccc([N+](=O)[O-])o2)S1, the inhibition was “Active”. Cc1ccc(/C=C/C(=O)Nc2nc3ccc(Cl)cc3s2)o1 was tested, and the inhibition was “Active”. O=[N+]([O-])c1ccc(NCc2ccco2)c2nonc12 was tested, and the inhibition was “Active”. With Cc1ccc(-c2csc3nc(SCc4c(C)noc4C)n(-c4ccccc4)c(=O)c23)o1 the inhibition was “Active”. In the case of COc1ccc(-n2cccc2/C=C2\C(=O)NC(=S)N(c3ccc(C)c(C)c3)C2=O)cc1, the inhibition is reported as “Active”. COC(=O)Cn1cc(/C=C2\C(=O)NC(=S)N(c3ccc(Cl)cc3)C2=O)c2ccccc21 was tested, and the inhibition was “Active”.
